From US20250296971A1, “GASTRIC INHIBITORY PEPTIDE RECEPTOR LIGANDS” (priority 2021, published 2025)
Where two headings read alike, the source gives them in different places. *1 amine or outer side, *2 acyl side, *3 side chain or, on linkers, in order; H or OH if unused. Where a SMILES comes first, the peptide text is derived from it. Bridges are numbered along the chain shown (N, C = ends). [ ]: non-standard residue; d: D form. The star is where a group is joined. X5 = NC(=O)[C@H](CCCCNC(=O)CN1CCN(CC(=O)O)CCN(CC(=O)O)CCN(CC(=O)O)CC1)NC(=O)CCC(=O)NCCCOCCOCCOCCCN*; Trp(5-Cl) = N[C@@H](Cc1c[nH]c2ccc(Cl)cc12)C(=O)O; Pyridine(2,6-diCH2) = c1cc(C[*:1])nc(C[*:2])c1; 1Nal = N[C@@H](Cc1cccc2ccccc12)C(=O)O; mXylylene = c1cc(C[*:1])cc(C[*:2])c1; Hyp = O=C(O)[C@@H]1C[C@@H](O)CN1; Cha = N[C@@H](CC1CCCCC1)C(=O)O; Tle = CC(C)(C)[C@H](N)C(=O)O; Nphe = O=C(O)CNCc1ccccc1; Thp = NC1(C(=O)O)CCOCC1; Aib = CC(C)(N)C(=O)O

Molecular target: T1, GIPR (CHO-K1-hGIPR cells) (Homo sapiens, UniProt P48546)
T1 construct: host or cells: CHO-K1
T1 sequence (P48546 22-466): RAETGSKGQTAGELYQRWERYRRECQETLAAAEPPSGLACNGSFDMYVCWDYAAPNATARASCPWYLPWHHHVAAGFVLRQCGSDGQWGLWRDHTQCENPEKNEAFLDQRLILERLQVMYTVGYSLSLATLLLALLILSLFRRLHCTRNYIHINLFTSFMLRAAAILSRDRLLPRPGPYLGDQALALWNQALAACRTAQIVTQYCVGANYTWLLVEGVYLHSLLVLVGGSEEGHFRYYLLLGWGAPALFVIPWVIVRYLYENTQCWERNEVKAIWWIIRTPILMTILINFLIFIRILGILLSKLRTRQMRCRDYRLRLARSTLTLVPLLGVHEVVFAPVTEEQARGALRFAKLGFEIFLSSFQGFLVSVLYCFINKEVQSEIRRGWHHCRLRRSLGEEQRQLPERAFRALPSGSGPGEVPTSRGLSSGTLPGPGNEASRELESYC
Experiment: FACS binding assay
Details: read-out: pIC50 Category (converted)
Outline: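 CHO-K1 cells expressing human GIPR, washed in PBS/1% FCS, then stained with 1 μg/mL APC-streptavidin for 30 min on ice.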

[1] = competition with 20 nM GIP-057, 4° C. for 1 hour
[2] = competition with 20 nM GIP-057, 4° C., 1 hour

SMILES | IC50 [1] [nM] | IC50 [2] [nM]
CC[C@H](C)[C@@H]1NC(=O)[C@H](CC(C)C)NC(=O)C2(CCOCC2)NC(=O)[C@@H](NC(=O)[C@@H](CC(C)C)NC(=O)[C@H](CCC(=O)O)NC(=O)CN(Cc2ccccc2)C(=O)[C@H](Cc2c[nH]c3ccc(Cl)cc23)NC(=O)[C@H](Cc2c[nH]c3ccccc23)NC(=O)[C@H](CC(=O)O)NC(C)=O)CSCc2cccc(n2)CSC[C@@H](C(N)=O)NC1=O [GIP-185, Ac-Asp-Trp-5Clw-Nphe-Glu-leu-[Cys(2Lut)-Thp-Leu-Ile-Cys]-NH2] (Ac-DW[Trp(5-Cl)][Nphe]E[dL]C[Thp]LIC-NH2; linker 7-11 via Pyridine(2,6-diCH2)) | – | < 10
CC[C@H](C)[C@@H]1NC(=O)[C@H](CC(C)C)NC(=O)C(C)(C)NC(=O)[C@@H](NC(=O)[C@H](CC2CCCCC2)NC(=O)[C@H](CCC(=O)O)NC(=O)[C@@H]2CCCN2C(=O)[C@H](Cc2c[nH]c3ccccc23)NC(=O)[C@H](Cc2c[nH]c3ccccc23)NC(=O)[C@H](CC(=O)O)NC(C)=O)CSCc2cccc(c2)CSC[C@@H](C(=O)NCCCOCCOCCOCCCNC(=O)CCC(=O)N[C@@H](CCCCNC(=O)CN2CCN(CC(=O)O)CCN(CC(=O)O)CCN(CC(=O)O)CC2)C(N)=O)NC1=O [GIP-295, Ac-Asp-Trp-Trp-Pro-Glu-Cha-[Cys(3MeBn)-Aib-Leu-Ile-Cys]-Ttds-Lys(DOTA)-NH2] (Ac-DWWPE[Cha]C[Aib]LIC-X5; linker 7-11 via mXylylene) | > 1000 | –
CC[C@H](C)[C@@H]1NC(=O)[C@H](CC(C)C)NC(=O)C(C)(C)NC(=O)[C@@H](NC(=O)[C@H](CC(C)C)NC(=O)[C@H](CCC(=O)O)NC(=O)[C@@H]2CCCN2C(=O)[C@H](Cc2c[nH]c3ccccc23)NC(=O)[C@H](Cc2c[nH]c3ccccc23)NC(=O)[C@H](CC(=O)O)NC(C)=O)CSCc2cccc(c2)CSC[C@@H](C(=O)NCCCOCCOCCOCCCNC(=O)CCC(=O)N[C@@H](CCCCNC(=O)CN2CCN(CC(=O)O)CCN(CC(=O)O)CCN(CC(=O)O)CC2)C(N)=O)NC1=O [GIP-131, Ac-Asp-Trp-Trp-Pro-Glu-Leu-[Cys(3MeBn)-Aib-Leu-Ile-Cys]-Ttds-Lys(DOTA)-NH2] (Ac-DWWPELC[Aib]LIC-X5; linker 7-11 via mXylylene) | – | 10 to 79.4
CC[C@H](C)[C@@H]1NC(=O)[C@H](CC(C)C)NC(=O)C(C)(C)NC(=O)[C@@H](NC(=O)[C@@H](CC(C)C)NC(=O)[C@H](CCC(=O)O)NC(=O)[C@@H]2CCCN2C(=O)[C@H](Cc2cccc3ccccc23)NC(=O)[C@H](Cc2c[nH]c3ccccc23)NC(=O)[C@H](CC(=O)O)NC(C)=O)CSCc2cccc(c2)CSC[C@@H](C(=O)NCCCOCCOCCOCCCNC(=O)CCC(=O)N[C@@H](CCCCNC(=O)CN2CCN(CC(=O)O)CCN(CC(=O)O)CCN(CC(=O)O)CC2)C(N)=O)NC1=O [GIP-078, Ac-Asp-Trp-1Ni-Pro-Glu-leu-[Cys(3MeBn)-Aib-Leu-Ile-Cys]-Ttds-Lys(DOTA)-NH2] (Ac-DW[1Nal]PE[dL]C[Aib]LIC-X5; linker 7-11 via mXylylene) | – | < 10

Next, values leading:

IC50 [1] [nM] | IC50 [2] [nM] | SMILES
100 to 794 | – | CC[C@H](C)[C@@H]1NC(=O)[C@H](C(C)(C)C)NC(=O)C(C)(C)NC(=O)[C@@H](NC(=O)[C@H](CC(C)C)NC(=O)[C@H](CCC(=O)O)NC(=O)[C@@H]2CCCN2C(=O)[C@H](Cc2c[nH]c3ccccc23)NC(=O)[C@H](Cc2c[nH]c3ccccc23)NC(=O)[C@H](CC(=O)O)NC(C)=O)CSCc2cccc(c2)CSC[C@@H](C(=O)NCCCOCCOCCOCCCNC(=O)CCC(=O)N[C@@H](CCCCNC(=O)CN2CCN(CC(=O)O)CCN(CC(=O)O)CCN(CC(=O)O)CC2)C(N)=O)NC1=O [GIP-276, Ac-Asp-Trp-Trp-Pro-Glu-Leu-[Cys(3MeBn)-Aib-Tle-Ile-Cys]-Ttds-Lys(DOTA)-NH2] (Ac-DWWPELC[Aib][Tle]IC-X5; linker 7-11 via mXylylene)
– | < 10 | CC[C@H](C)[C@@H]1NC(=O)[C@H](CC(C)C)NC(=O)C2(CCOCC2)NC(=O)[C@@H](NC(=O)[C@@H](CC(C)C)NC(=O)[C@H](CCC(=O)O)NC(=O)[C@@H]2C[C@@H](O)CN2C(=O)[C@H](Cc2c[nH]c3ccc(Cl)cc23)NC(=O)[C@H](Cc2c[nH]c3ccccc23)NC(=O)[C@H](CCC(N)=O)NC(C)=O)CSCc2cccc(n2)CSC[C@@H](C(N)=O)NC1=O [GIP-204, Ac-Gln-Trp-5Clw-Hyp-Glu-leu-[Cys(2Lut)-Thp-Leu-Ile-Cys]-NH2] (Ac-QW[Trp(5-Cl)][Hyp]E[dL]C[Thp]LIC-NH2; linker 7-11 via Pyridine(2,6-diCH2))
